# Tests used:
# [1] = AUCinfinity in Sprague-Dawley rat at 5 mg/kg, po administered via gavage measured up to 24 hrs by LCMS analysis; type: ADME, organism-based; parameters: route oral, dose 5 mg/kg, time <=24; settings: in vivo
# [2] = AUC (0 to last) in Sprague-Dawley rat at 1 mg/kg, iv measured up to 24 hrs by LCMS analysis; type: ADME, organism-based; parameters: route intravenous, dose 1 mg/kg, time <=24; settings: in vivo
# Cytochrome P450 1A2 = biological target: T1, Cytochrome P450 1A2 (Homo sapiens, UniProt P05177); experiment: Inhibition of CYP1A2 in human liver microsomes using phenacetin as substrate incubated for 15 to 45 mins in presence of NADPH; type: ADME
# T1 sequence (P05177 whole entry): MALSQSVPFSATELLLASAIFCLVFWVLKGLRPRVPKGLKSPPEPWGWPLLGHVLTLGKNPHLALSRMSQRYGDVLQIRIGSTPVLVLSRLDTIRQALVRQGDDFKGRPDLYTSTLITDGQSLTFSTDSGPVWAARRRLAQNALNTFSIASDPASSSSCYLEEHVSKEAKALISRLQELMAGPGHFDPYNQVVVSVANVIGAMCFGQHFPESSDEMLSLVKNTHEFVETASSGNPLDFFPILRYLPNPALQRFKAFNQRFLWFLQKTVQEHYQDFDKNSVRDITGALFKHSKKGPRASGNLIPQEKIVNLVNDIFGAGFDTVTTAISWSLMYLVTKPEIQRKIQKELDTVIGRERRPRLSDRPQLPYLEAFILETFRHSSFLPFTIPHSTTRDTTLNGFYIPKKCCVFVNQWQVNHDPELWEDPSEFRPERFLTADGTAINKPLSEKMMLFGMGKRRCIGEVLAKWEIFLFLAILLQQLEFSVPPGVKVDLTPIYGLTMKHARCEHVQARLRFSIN
# [3] = Inhibition of CYP3A4T in human liver microsomes using testosterone as substrate incubated for 15 to 45 mins in presence of NADPH; type: ADME
# [4] = MRTinfinity in Sprague-Dawley rat at 5 mg/kg, po administered via gavage measured up to 24 hrs by LCMS analysis; type: ADME, organism-based; settings: in vivo
# [5] = Acute toxicity in fasted male mouse assessed as death at 2 g/Kg, IG administered as single dose measured every day for 14 days; settings: in vivo, po, 2000 mg/kg, 336 h, time 14 day
# [6] = Aqueous solubility of the compound in PBS buffer at pH 7 measured after 24 hrs by HPLC-UV analysis; type: physicochemical
# [7] = Acute toxicity in fasted male mouse assessed as pathological changes in kidney at 2 g/Kg, IG administered as single dose measured after 14 days by HE staining based assay; type: tissue-based; settings: in vivo, po, 2000 mg/kg, 336 h, time 14 day
# [8] = Acute toxicity in fasted female mouse assessed as death at 2 g/Kg, IG administered as single dose measured every day for 14 days; settings: in vivo, po, 2000 mg/kg, 336 h, time 14 day
# Cytochrome P450 2D6 = Cytochrome P450 2D6 (Homo sapiens, UniProt P10635); experiment: Inhibition of CYP2D6 in human liver microsomes using dextromethorphan as substrate incubated for 15 to 45 mins in presence of NADPH; type: ADME
# [9] = Acute toxicity in fasted male mouse assessed as pathological changes in spleen at 2 g/Kg, IG administered as single dose measured after 14 days by HE staining based assay; type: tissue-based; settings: in vivo, po, 2000 mg/kg, 336 h, time 14 day
# [10] = AUC (0 to last) in Sprague-Dawley rat at 5 mg/kg, po administered via gavage measured up to 24 hrs by LCMS analysis; type: ADME, organism-based; parameters: route oral, dose 5 mg/kg, time <=24; settings: in vivo
# [11] = Acute toxicity in fasted female mouse assessed as pathological changes in lung at 2 g/Kg, IG administered as single dose measured after 14 days by HE staining based assay; type: tissue-based; settings: in vivo, po, 2000 mg/kg, 336 h, time 14 day
# [12] = Oral bioavailability in Sprague-Dawley rat at 5 mg/kg administered via gavage measured up to 24 hrs by LCMS analysis; type: ADME, organism-based; settings: in vivo
# [13] = Aqueous solubility of the compound in PBS buffer at pH 7.4 measured after 24 hrs by HPLC-UV analysis; type: physicochemical
# [14] = Acute toxicity in fasted female mouse assessed as pathological changes in brain at 2 g/Kg, IG administered as single dose measured after 14 days by HE staining based assay; type: tissue-based; settings: in vivo, po, 2000 mg/kg, 336 h, time 14 day
# [15] = Inhibition of CYP3A4M in human liver microsomes using midazolam as substrate incubated for 15 to 45 mins in presence of NADPH; type: ADME
# [16] = Half life in Sprague-Dawley rat at 5 mg/kg, po administered via gavage measured up to 24 hrs by LCMS analysis; type: ADME, organism-based; settings: in vivo
# [17] = Acute toxicity in fasted female mouse assessed as pathological changes in spleen at 2 g/Kg, IG administered as single dose measured after 14 days by HE staining based assay; type: tissue-based; settings: in vivo, po, 2000 mg/kg, 336 h, time 14 day
# [18] = Acute toxicity in fasted male mouse assessed as pathological changes in liver at 2 g/Kg, IG administered as single dose measured after 14 days by HE staining based assay; type: tissue-based; settings: in vivo, po, 2000 mg/kg, 336 h, time 14 day
# [19] = Acute toxicity in fasted female mouse assessed as pathological changes in heart at 2 g/Kg, IG administered as single dose measured after 14 days by HE staining based assay; type: tissue-based; settings: in vivo, po, 2000 mg/kg, 336 h, time 14 day
# [20] = Acute toxicity in fasted male mouse assessed as pathological changes in heart at 2 g/Kg, IG administered as single dose measured after 14 days by HE staining based assay; type: tissue-based; settings: in vivo, po, 2000 mg/kg, 336 h, time 14 day
# [21] = Acute toxicity in fasted male mouse assessed as pathological changes in lung at 2 g/Kg, IG administered as single dose measured after 14 days by HE staining based assay; type: tissue-based; settings: in vivo, po, 2000 mg/kg, 336 h, time 14 day
# Cytochrome P450 2C9 = Cytochrome P450 2C9 (Homo sapiens, UniProt P11712); experiment: Inhibition of CYP2C9 in human liver microsomes using tolbutamide as substrate incubated for 15 to 45 mins in presence of NADPH
# [22] = Acute toxicity in fasted female mouse assessed as pathological changes in kidney at 2 g/Kg, IG administered as single dose measured after 14 days by HE staining based assay; type: tissue-based; settings: in vivo, po, 2000 mg/kg, 336 h, time 14 day
# [23] = Acute toxicity in fasted male mouse assessed as abnormal behavior at 2 g/Kg, IG administered as single dose measured every day for 14 days; settings: in vivo, po, 2000 mg/kg, 336 h, time 14 day
# [24] = Cmax in Sprague-Dawley rat at 5 mg/kg, po administered via gavage measured up to 24 hrs by LCMS analysis; type: ADME, organism-based; parameters: route oral, dose 5 mg/kg, time <=24; settings: in vivo
# [25] = MRTinfinity in Sprague-Dawley rat at 1 mg/kg, iv measured up to 24 hrs by LCMS analysis; type: ADME, organism-based; settings: in vivo
# [26] = Aqueous solubility of the compound in PBS buffer at pH 2 measured after 24 hrs by HPLC-UV analysis; type: physicochemical
# [27] = Acute toxicity in fasted male mouse assessed as pathological changes in brain at 2 g/Kg, IG administered as single dose measured after 14 days by HE staining based assay; type: tissue-based; settings: in vivo, po, 2000 mg/kg, 336 h, time 14 day
# [28] = Tmax in Sprague-Dawley rat at 5 mg/kg, po administered via gavage measured up to 24 hrs by LCMS analysis; type: ADME, organism-based; settings: in vivo
# [29] = Acute toxicity in fasted female mouse assessed as increase in body weight at 2 g/Kg, IG administered as single dose measured every day for 14 days; settings: in vivo, po, 2000 mg/kg, 336 h, time 14 day
# [30] = AUCinfinity in Sprague-Dawley rat at 1 mg/kg, iv measured up to 24 hrs by LCMS analysis; type: ADME, organism-based; parameters: route intravenous, dose 1 mg/kg, time <=24; settings: in vivo
# [31] = Half life in Sprague-Dawley rat at 1 mg/kg, iv measured up to 24 hrs by LCMS analysis; type: ADME, organism-based; settings: in vivo
# Cytochrome P450 2C19 = Cytochrome P450 2C19 (Homo sapiens, UniProt P33261); experiment: Inhibition of CYP2C19 in human liver microsomes using S-mephenytoin as substrate incubated for 15 to 45 mins in presence of NADPH; type: ADME
# [32] = Acute toxicity in fasted male mouse assessed as increase in body weight at 2 g/Kg, IG administered as single dose measured every day for 14 days; settings: in vivo, po, 2000 mg/kg, 336 h, time 14 day
# [33] = Acute toxicity in fasted female mouse assessed as abnormal behavior at 2 g/Kg, IG administered as single dose measured every day for 14 days; settings: in vivo, po, 2000 mg/kg, 336 h, time 14 day
# [34] = Acute toxicity in fasted female mouse assessed as pathological changes in liver at 2 g/Kg, IG administered as single dose measured after 14 days by HE staining based assay; type: tissue-based; settings: in vivo, po, 2000 mg/kg, 336 h, time 14 day
# [35] = Half life in Sprague-Dawley rat at 5 mg/kg, IG measured up to 24 hrs by LCMS analysis; type: ADME, organism-based; settings: in vivo, po
# [36] = Metabolic stability in mouse liver microsomes assessed as intrinsic clearance at 1 uM presence of NADPH measured up to 60 mins by LC-MS/MS analysis; type: ADME, Microsome; settings: read-out: CLH
# [37] = Metabolic stability in rat liver microsomes assessed as half life at 1 uM presence of NADPH measured up to 60 mins by LC-MS/MS analysis; type: ADME, Microsome
# [38] = Metabolic stability in human liver microsomes assessed as half life at 1 uM presence of NADPH measured up to 60 mins by LC-MS/MS analysis; type: ADME, Microsome
# [39] = Metabolic stability in human liver microsomes assessed as intrinsic clearance at 1 uM presence of NADPH measured up to 60 mins by LC-MS/MS analysis; type: ADME, Microsome; settings: read-out: CLH
# [40] = Metabolic stability in rat liver microsomes assessed as intrinsic clearance at 1 uM presence of NADPH measured up to 60 mins by LC-MS/MS analysis; type: ADME, Microsome; settings: read-out: CLH
# [41] = Metabolic stability in mouse liver microsomes assessed as half life at 1 uM presence of NADPH measured up to 60 mins by LC-MS/MS analysis; type: ADME, Microsome
# Sequence of Cytochrome P450 2D6 (P10635 whole entry): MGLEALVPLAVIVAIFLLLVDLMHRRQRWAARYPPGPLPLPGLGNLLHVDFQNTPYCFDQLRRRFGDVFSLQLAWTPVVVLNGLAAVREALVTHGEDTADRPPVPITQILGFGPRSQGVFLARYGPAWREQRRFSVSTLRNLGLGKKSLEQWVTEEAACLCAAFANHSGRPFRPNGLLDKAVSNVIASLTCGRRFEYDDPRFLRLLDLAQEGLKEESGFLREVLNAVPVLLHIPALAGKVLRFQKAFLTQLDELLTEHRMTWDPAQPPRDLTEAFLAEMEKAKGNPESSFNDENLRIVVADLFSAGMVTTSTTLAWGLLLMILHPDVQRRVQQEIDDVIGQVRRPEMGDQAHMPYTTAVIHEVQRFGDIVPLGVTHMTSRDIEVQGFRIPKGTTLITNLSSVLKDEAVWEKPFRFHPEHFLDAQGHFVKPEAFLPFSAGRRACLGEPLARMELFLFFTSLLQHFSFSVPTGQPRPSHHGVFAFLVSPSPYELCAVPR
# Sequence of Cytochrome P450 2C19 (P33261 whole entry): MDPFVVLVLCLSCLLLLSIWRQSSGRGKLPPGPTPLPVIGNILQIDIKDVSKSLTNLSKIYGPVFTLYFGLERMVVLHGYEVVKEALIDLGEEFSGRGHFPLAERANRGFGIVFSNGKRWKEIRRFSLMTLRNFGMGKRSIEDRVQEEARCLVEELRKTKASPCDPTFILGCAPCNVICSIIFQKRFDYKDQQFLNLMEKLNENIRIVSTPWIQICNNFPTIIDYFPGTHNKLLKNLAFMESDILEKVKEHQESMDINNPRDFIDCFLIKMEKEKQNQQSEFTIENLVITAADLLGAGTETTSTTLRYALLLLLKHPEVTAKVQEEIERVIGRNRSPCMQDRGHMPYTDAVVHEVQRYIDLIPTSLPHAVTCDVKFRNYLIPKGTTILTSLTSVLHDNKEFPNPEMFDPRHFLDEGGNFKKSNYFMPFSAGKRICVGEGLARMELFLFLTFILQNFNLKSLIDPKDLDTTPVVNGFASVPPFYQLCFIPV
# Sequence of Cytochrome P450 2C9 (P11712 whole entry): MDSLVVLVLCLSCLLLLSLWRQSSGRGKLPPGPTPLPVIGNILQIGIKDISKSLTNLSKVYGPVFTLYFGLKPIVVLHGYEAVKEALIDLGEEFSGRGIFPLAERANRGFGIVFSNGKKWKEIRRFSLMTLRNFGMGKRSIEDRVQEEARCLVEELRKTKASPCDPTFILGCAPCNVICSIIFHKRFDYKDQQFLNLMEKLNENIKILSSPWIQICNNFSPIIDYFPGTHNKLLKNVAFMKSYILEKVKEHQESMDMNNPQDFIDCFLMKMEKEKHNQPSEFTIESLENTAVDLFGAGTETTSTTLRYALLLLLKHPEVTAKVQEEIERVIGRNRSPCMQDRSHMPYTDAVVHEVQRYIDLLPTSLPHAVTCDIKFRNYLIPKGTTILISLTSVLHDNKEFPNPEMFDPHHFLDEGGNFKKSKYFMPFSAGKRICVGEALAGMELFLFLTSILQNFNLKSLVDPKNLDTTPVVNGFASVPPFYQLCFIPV
SMILES,IC50 (Cytochrome P450 1A2) [µM],IC50 [3] [µM],Activity [5],Activity [7],Activity [8],IC50 (Cytochrome P450 2D6) [µM],Activity [9],Activity [11],bioavailability [12] [%],Activity [14],IC50 [15] [µM],Activity [17],Activity [18],Activity [19],Activity [20],Activity [21],IC50 (Cytochrome P450 2C9) [µM],Activity [22],Activity [23],Cmax [24] [ng/mL],also measured
Cc1cc(-c2ccncc2)cc(C)c1Nc1ccnc(Nc2ccc(C#N)cc2)n1.Cl,> 30,20,Non-Toxic,Non-Toxic,Non-Toxic,> 30,Non-Toxic,Non-Toxic,59.4,Non-Toxic,21,Non-Toxic,Non-Toxic,Non-Toxic,Non-Toxic,Non-Toxic,17,Non-Toxic,Non-Toxic,365,AUC(0-inf) [1]: 861 ng·h/mL; AUC(0-t) at 24 h [2]: 285 ng·h/mL; MRT inf [4]: 126 min; solubility at 24 h [6]: 9.1 µg/mL; AUC(0-t) at 24 h [10]: 835 ng·h/mL; solubility at 24 h [13]: 9 µg/mL; half-life [16]: 132 min; MRT inf [25]: 28.8 min; solubility at 24 h [26]: 584 µg/mL; Activity [27]: Non-Toxic; Tmax [28]: 60 min; Activity [29]: Toxic; AUC(0-inf) [30]: 290 ng·h/mL; half-life [31]: 21.6 min; IC50 (Cytochrome P450 2C19): 6.8 µM; Activity [32]: Toxic; Activity [33]: Non-Toxic; Activity [34]: Non-Toxic
N#Cc1ccc(Nc2nccc(Nc3c(F)cc(-c4ccncc4)cc3F)n2)cc1,–,–,–,–,–,–,–,–,–,–,–,–,–,–,–,–,–,–,–,–,half-life [35]: 50.4 min
Br.Cc1cnc(Nc2ccc(C#N)cc2)nc1Nc1c(F)cc(-c2ccncc2)cc1F,4.1,19,Non-Toxic,Non-Toxic,Non-Toxic,7.6,Non-Toxic,Non-Toxic,0.9,Non-Toxic,29,Non-Toxic,Non-Toxic,Non-Toxic,Non-Toxic,Non-Toxic,4.5,Non-Toxic,Non-Toxic,2.14,microsomal CLint at 1 µM [36]: 24.9 µL/min/mg; half-life at 1 µM [37]: 44 min; half-life at 1 µM [38]: 95 min; microsomal CLint at 1 µM [39]: 14.6 µL/min/mg; microsomal CLint at 1 µM [40]: 31.8 µL/min/mg; Activity [27]: Non-Toxic; Tmax [28]: 15 min; Activity [29]: Toxic; half-life [31]: 48.6 min; IC50 (Cytochrome P450 2C19): 2.2 µM; half-life at 1 µM [41]: 56 min; Activity [32]: Toxic; Activity [33]: Non-Toxic; Activity [34]: Non-Toxic

# Reference: ChEMBL document CHEMBL5042530, “Discovery of Novel Pyridine-Dimethyl-Phenyl-DAPY Hybrids by Molecular Fusing of Methyl-Pyrimidine-DAPYs and Difluoro-Pyridinyl-DAPYs: Improving the Druggability toward High Inhibitory Activity, Solubility, Safety, and PK” (J Med Chem, 2022)
